{
  "source": "patent US20130344141A1",
  "about": "“CONCENTRATION AND MENTAL PERFORMANCE AMPLIFYING FORMULATION” (priority 2009, published 2013)",
  "origin": "cited, not measured here",
  "key": {"[1]": {"settings": "taken orally"}, "[2]": {"settings": "majority metabolized peripherally"}, "[3]": {"settings": "in vivo, po"}, "[4]": {"tested_on": "acetylcholine"}, "[5]": {"tested_on": "neurons", "settings": "by blocking glutamate-induced neuronal calcium influx and cell death"}, "[6]": {"settings": "in vivo"}, "[7]": {"tested_on": "cerebral cortex N-methyl-D-aspartate (NMDA) receptor"}, "[8]": {"tested_on": "fungal microorganisms that cause onychomycosis", "settings": "Trichophyton rubrum, T. mentagrophytes, Microsporum canis, Epidermophyton floccosum, E. stockdale"}, "[9]": {"tested_on": "neuroblastoma cells", "settings": "in vitro"}, "[10]": {"tested_on": "platelet aggregation"}, "[11]": {"settings": "in vivo", "remark": "listed apart in the source"}},
  "note": "Read-outs that look alike come from different tables or passages of the source.",
  "data": [
    {"molecule": "1,2-diacyl-:ussn:ueglycero-3-phosphocholine [phosphatidylcholine]", "values": [
      {"measurement": "time to maximum serum concentrations", "setting": "[1]", "result": "8 to 12", "unit": "h"}
    ]},
    {"molecule": "N[C@@H](Cc1ccc(O)c(O)c1)C(=O)O", "note": "[L-dopa, levodopa]", "values": [
      {"measurement": "share that reaches the brain", "setting": "[2]", "result": "less than 1%"}
    ]},
    {"molecule": "Cn1c(=O)c2c(ncn2C)n(C)c1=O", "note": "[caffeine, 1,3,7-trimethylxanthine]", "values": [
      {"measurement": "bioavailability", "setting": "[3]", "result": 100, "unit": "%"}
    ]},
    {"molecule": "C/C=C1\\[C@H]2C=C(C)C[C@]1(N)c1ccc(=O)[nH]c1C2", "note": "[huperzine A, Huperzine A]", "values": [
      {"measurement": "acetylcholine elevation, frontal cortex", "setting": "[4]; maximal value, frontal cortex", "result": 125, "unit": "%"},
      {"measurement": "acetylcholine elevation, parietal cortex", "setting": "[4]; maximal value, parietal cortex", "result": 105, "unit": "%"},
      {"measurement": "acetylcholine elevation, other brain regions", "setting": "[4]; other brain regions", "result": "22-65%"},
      {"measurement": "protection of neurons against toxic levels of glutamate", "setting": "[5]", "result": "protects neurons"},
      {"measurement": "blood-brain barrier passage", "setting": "[6]", "result": "crosses the blood-brain barrier"},
      {"measurement": "affinity as NMDA receptor antagonist", "setting": "[7]", "result": "low affinity"}
    ]},
    {"molecule": "CC1CCC(C(C)C)C(O)C1", "note": "(stereo not shown) [menthol]", "values": [
      {"measurement": "activity against fungal microorganisms that cause onychomycosis", "setting": "[8]", "result": "active"}
    ]},
    {"molecule": "CN1CCCC1c1cccnc1", "note": "(stereo not shown) [nicotine, Nicotine]", "values": [
      {"measurement": "elimination half-life", "setting": "in the body", "result": "around two"},
      {"measurement": "blood-brain barrier passage", "setting": "in vivo", "result": "crosses the blood-brain barrier"}
    ]},
    {"molecule": "OC[C@H]1O[C@@H](OCCc2ccc(O)cc2)[C@H](O)[C@@H](O)[C@@H]1O", "note": "[salidroside]", "values": [
      {"measurement": "apoptosis of neuroblastoma cells exposed to hydrogen peroxide", "setting": "[9]", "result": "decreases apoptosis"}
    ]},
    {"molecule": "CCOC(=O)C1=C[C@]2(CC)CCCN3CCc4c(n1c1ccccc41)[C@@H]32", "note": "[vinpocetine, Eburnamenine-14-carboxylic acid; Ethyl Ester]", "values": [
      {"measurement": "drug-induced platelet aggregation", "setting": "[10]", "result": "inhibits"},
      {"measurement": "bioavailability", "setting": "[11]", "result": "7-57%"},
      {"measurement": "effect of food on absorption", "setting": "[11]", "result": "food significantly enhances absorption"}
    ]}
  ]
}
